ChEMBL document CHEMBL6096634, “Exploration of novel 20S proteasome activators featuring anthraquinone structures and their application in hypoxic cardiomyocyte protection” (Bioorg Med Chem, 2024)
Several values for one entry are separate records, joined by “and”; a condition that tells them apart may be missing. Equal values may be shown once. Activity calls are given as the source filed them. The rule behind the calls is not given here.

Key:
[1] = biological target: T1, 20S proteasome (Homo sapiens) (UniProt P49721+P20618+P28074+P28062+P28065+P28072+P25786+P25787+P25788+P25789+P28066+P60900+O14818+Q8TAA3+P40306+A5LHX3+P49720+P28070+Q99436); test: (§1) Activation of human erythrocyte-derived 20s proteosome using CT-L as peptide substrate by fluorescence based analysis; format: cell-based; settings: for EC200: filed as activator
[2] = biological target: T1, 20S proteasome (Homo sapiens); test: Activation of human erythrocyte-derived 20s proteosome using CT-L as peptide substrate at 10 uM by fluorescence based analysis relative to control; format: cell-based; settings: filed as activator
H9c2 [3] = test: Upregulation of Ki-67 expression in rat H9c2 cells at 0.25 uM under normoxic condition by qRT-PCR analysis; format: functional, cell-based
HEK293 = test: Inhibition of […]-induced ER stress in HEK293 cells harbouring XBP1-delta DBD-Luc cells assessed as decrease in luciferase activity incubated for 8 hrs by […]; format: functional, cell-based; settings: Homo sapiens, dose 10-20 µM
20S proteasome [4] = test: as §1; format: cell-based
[5] = biological target: T1, 20S proteasome (Homo sapiens); test: (§2) Activation of human erythrocyte-derived 20s proteosome using T-L as peptide substrate by fluorescence based analysis; format: cell-based; settings: filed as activator
H9c2 [6] = test: Upregulation of Ki-67 expression in rat H9c2 cells at 0.25 uM under hypoxic condition by qRT-PCR analysis; format: functional, cell-based
H9c2 [7] = test: Effect on PCNA expression in rat H9c2 cells at 0.25 uM under normoxic condition by qRT-PCR analysis; format: functional, cell-based
H9c2 [8] = test: Protection against hypoxia-induced cell damage in rat H9c2 cells at 0.025 uM incubated for 14 hrs by MTT assay; format: functional, cell-based
H9c2 [9] = test: Effect on PCNA expression in rat H9c2 cells at 0.25 uM under hypoxic condition by qRT-PCR analysis; format: functional, cell-based
H9c2 [10] = test: Protection against hypoxia-induced cell damage in rat H9c2 cells at 0.05 uM incubated for 14 hrs by MTT assay; format: functional, cell-based
[11] = biological target: T1, 20S proteasome (Homo sapiens); test: Activation of 20s proteosome (unknown origin) mediated chymotrypsin-like activity assessed as fold maximum enhancement; format: protein-complex assay; settings: filed as activator
[12] = biological target: T1, 20S proteasome (Homo sapiens); test: Activation of 20s proteosome (unknown origin) mediated chymotrypsin-like activity; format: protein-complex assay; settings: filed as activator
[13] = biological target: T1, 20S proteasome (Homo sapiens); test: Activation of human erythrocyte-derived 20s proteosome assessed as fold maximum enhancement using Casp-L as peptide substrate by fluorescence based analysis; format: cell-based; settings: filed as activator
[14] = biological target: T1, 20S proteasome (Homo sapiens); test: Activation of human erythrocyte-derived 20s proteosome assessed as fold maximum enhancement using CT-L as peptide substrate by fluorescence based analysis; format: cell-based; settings: filed as activator
[15] = biological target: T1, 20S proteasome (Homo sapiens); test: Activation of human erythrocyte-derived 20s proteosome assessed as fold maximum enhancement using T-L as peptide substrate by fluorescence based analysis; format: cell-based; settings: filed as activator
20S proteasome [16] = test: as §2; format: cell-based
[17] = biological target: 26S proteasome (Homo sapiens) (UniProt Q99460+P49721+P20618+P28074+P28062+P28065+P28072+O00487+P25786+P25787+P25788+P25789+P28066+P60900+O14818+Q8TAA3+P40306+A5LHX3+P49720+P28070+Q99436+Q16186+P35998+P62191+P43686+P62333+P17980+P62195+Q13200+O43242+O00232+O00231+Q15008+P51665+Q9UNM6+P55036+P48556+P60896); test: Activation of 26s proteosome (unknown origin); format: protein-complex assay
20S proteasome [18] = test: (§3) Activation of human erythrocyte-derived 20s proteosome using Casp-L as peptide substrate by fluorescence based analysis; format: cell-based
[19] = biological target: T1, 20S proteasome (Homo sapiens); test: as §3; format: cell-based; settings: filed as activator

Activity [2] | EC50 (20S proteasome [4]) | EC200 [1] | fold change (FC) [5] | Structure (SMILES) | also measured
78.4% | – | – | – | O=C1c2ccccc2-c2onc3c(NCN4CCCCC4)cc(NCN4CCCCC4)c1c23 | Activity [1]: inactive
377% | 3680 nM | 0.66 µM | 5.38 | Cc1ccc(Nc2cc(NCC(C)C)c(N)c3c2C(=O)c2ccccc2C3=O)cc1 | Activity (H9c2 [3]): Active; inhibition (HEK293): Active; Activity (H9c2 [10]): Active; Activity (H9c2 [6]): Active; Activity (H9c2 [7]): inactive; Activity (H9c2 [9]): inactive
175% | 2090 nM | 0.19 µM | 2.08 | Cc1cccc(Nc2cc(NCCC(C)C)c3noc4c3c2C(=O)c2ccccc2-4)c1 | –
425% | 1330 nM | 0.12 µM | 5.83 | CC(C)CNc1cc(Nc2ccc(N3CCOCC3)cc2)c2c3c(onc13)-c1ccccc1C2=O | inhibition (HEK293): Active; Activity (H9c2 [10]): Active
47.9% | – | – | – | Cc1cccc(Nc2cc(NCCN3CCOCC3)c3noc4c3c2C(=O)c2ccccc2-4)c1 | Activity [1]: inactive
276% | 3020 nM | 0.7 µM | 3.54 | COc1ccc(Nc2cc(NCC(C)C)c3noc4c3c2C(=O)c2ccccc2-4)cc1 | –
359% | 3000 nM | 0.72 µM | 4.8 | Cc1ccc(Nc2cc(NCC(C)C)c3noc4c3c2C(=O)c2ccccc2-4)cc1 | –
472% | 1830 nM and 850 nM | 0.46 µM and 0.38 µM | 5.98 | Cc1cccc(Nc2cc(NCC(C)C)c3noc4c3c2C(=O)c2ccccc2-4)c1 | fold change (FC) [13]: 9.77; fold change (FC) [14]: 6.22; fold change (FC) [15]: 4.37; inhibition (HEK293): Active; EC50 (20S proteasome [16]): 2330 nM; EC200 [5]: 0.75 µM; Activity [17]: inactive; Activity (H9c2 [8]): Active; EC50 (20S proteasome [18]): 1900 nM; EC200 [19]: 0.93 µM
361% | 3300 nM | 1.41 µM | 4.71 | CC(C)CNc1cc(NC2CC2)c2c3c(onc13)-c1ccccc1C2=O | –
594% | 4360 nM | 0.4 µM | 10.6 | CCCNc1cc(Nc2cccc(C)c2)c2c3c(onc13)-c1ccccc1C2=O | –
119% | – | – | – | Cc1cccc(Nc2cc(NCCO)c3noc4c3c2C(=O)c2ccccc2-4)c1 | Activity [1]: inactive

The remaining lines, values behind:

Structure (SMILES) | Activity [2] | EC50 (20S proteasome [4]) | EC200 [1] | fold change (FC) [5] | also measured
COc1ccc(Nc2cc(NCC(C)C)c(N)c3c2C(=O)c2ccccc2C3=O)cc1 | 360% | 1570 nM | 0.61 µM | 5.03 | Activity (H9c2 [3]): Active; inhibition (HEK293): Active; Activity (H9c2 [6]): Active; Activity (H9c2 [7]): inactive; Activity (H9c2 [8]): Active; Activity (H9c2 [9]): inactive
O=C1c2cccc(O)c2C(=O)c2c(O)cc(C(=O)N3CCc4ccccc4C3)cc21 | 350% | 4020 nM | 1.14 µM | 3.79 | –
CCOC(=O)[C@]1(c2ccccc2)N=C(c2ccc(OC)cc2)N(Cc2ccccc2)[C@@H]1c1ccc(NCc2ccccc2)cc1 | 438% | – | 0.91 µM | 4.31 | fold change (FC) [11]: 8.3; EC200 [12]: 1.4 µM
O=C1c2cccc(O)c2C(=O)c2c(O)cc(C(=O)N3CCN(c4nccs4)CC3)cc21 | 453% | 3570 nM | 1.18 µM | 4.07 | –
O=C(NCCN1CCOCC1)c1cc(O)c2c(c1)C(=O)c1cccc(O)c1C2=O | 68.6% | – | – | – | Activity [1]: inactive
O=C1c2cccc(O)c2C(=O)c2c(O)cc(C(=O)N3CCC(c4ccccc4)CC3)cc21 | 233% | 2720 nM | 1.37 µM | 3.71 | –
CN1CCN(c2ccc(NC(=O)c3cc(O)c4c(c3)C(=O)c3cccc(O)c3C4=O)cc2)CC1 | 549% | 6120 nM | 3.85 µM | 7.32 | –
Cc1cccc(NC(=O)c2cc(O)c3c(c2)C(=O)c2cccc(O)c2C3=O)c1 | 567% | 2260 nM | 1.67 µM | 6.5 | –
CN(CCc1ccccc1)C(=O)c1cc(O)c2c(c1)C(=O)c1cccc(O)c1C2=O | 148% | – | – | – | Activity [1]: inactive
O=C(Nc1ccc(N2CCOCC2)cc1)c1cc(O)c2c(c1)C(=O)c1cccc(O)c1C2=O | 552% | 1800 nM | 0.2 µM | 6.36 | Activity (H9c2 [8]): Active
COc1ccc(NC(=O)c2cc(O)c3c(c2)C(=O)c2cccc(O)c2C3=O)cc1 | 696% | 2050 nM | 0.32 µM | 8.91 | –
CC(C)CNC(=O)c1cc(O)c2c(c1)C(=O)c1cccc(O)c1C2=O | 376% | 2570 nM | 2.15 µM | 2.23 | –
